These results are taken from US20110287468A1, “METHODS AND COMPOSITIONS FOR ASSAYING ENZYMATIC ACTIVITY OF MYELOPEROXIDASE IN BLOOD SAMPLES” (General Atomics, priority 2010, published 2011).

Assay type in all cases: biochemical
For series [1], the target named is T1, MPO (Homo sapiens, UniProt P05164). In words: Interference by a specific MPO inhibitor (ABAH) added to the formed dye. To be noted: 0.2 mM H2O2, 47 ng/mL MPO, 100 mM phosphate buffer pH 6.0-7.0; for ΔOD/min (after inhibitor): after 0.1 mM ABAH; for ΔOD/min (before inhibitor): before ABAH; for Interference by Inhibitor: 0.1 mM ABAH added to the formed dye. The protocol: Interference by a specific MPO inhibitor was evaluated by adding 0.1 mM of 4-aminobenzoic acid hydrazide (ABAH) to the formed dye (i.e. the colored product of the substrate oxidation) in the buffer solution. Before the addition of the inhibitor, the reaction mixture contained the chromogenic substrates, as well as 0.2 mM H2O2 (co-substrate) and 47 ng/mL MPO in 100 mM phosphate buffer (pH 6.0-7.0). Interference by the inhibitor was designated as “low” if the absorption changed by ≦0.01 ΔOD/min and “high” if the absorption changed by >0.01 ΔOD/min. The results are summarized in Tables 2 and 6, and the corresponding kinetic traces are shown on FIG. 1.

Series [2] deals with T1, MPO. In words: Sensitivity of chromogenic substrates: MPO peroxidase activity in buffer solution. To be noted: 0.24 mM H2O2, 94 ng/mL MPO, 100 mM phosphate buffer pH 6.0-7.0; for Sensitivity: class of ΔOD/min; for ΔOD/min: read at the substrate's wavelength. The text has this:
Substrate sensitivity was designated as “high” if ΔOD/min was above 0.2, “fair” if ΔOD/min was between 0.05 and 0.2, and “poor” if ΔOD/min was below 0.05.

In series [3] the target is T2, MPO (Homo sapiens, UniProt P05164).
T2 construct: In a cuvette, 140 μL of Reagent 1 and 25 μL of plasma sample were mixed; from tissue; host or cells: human lithium heparin plasma
T2 sequence (P05164 49-745): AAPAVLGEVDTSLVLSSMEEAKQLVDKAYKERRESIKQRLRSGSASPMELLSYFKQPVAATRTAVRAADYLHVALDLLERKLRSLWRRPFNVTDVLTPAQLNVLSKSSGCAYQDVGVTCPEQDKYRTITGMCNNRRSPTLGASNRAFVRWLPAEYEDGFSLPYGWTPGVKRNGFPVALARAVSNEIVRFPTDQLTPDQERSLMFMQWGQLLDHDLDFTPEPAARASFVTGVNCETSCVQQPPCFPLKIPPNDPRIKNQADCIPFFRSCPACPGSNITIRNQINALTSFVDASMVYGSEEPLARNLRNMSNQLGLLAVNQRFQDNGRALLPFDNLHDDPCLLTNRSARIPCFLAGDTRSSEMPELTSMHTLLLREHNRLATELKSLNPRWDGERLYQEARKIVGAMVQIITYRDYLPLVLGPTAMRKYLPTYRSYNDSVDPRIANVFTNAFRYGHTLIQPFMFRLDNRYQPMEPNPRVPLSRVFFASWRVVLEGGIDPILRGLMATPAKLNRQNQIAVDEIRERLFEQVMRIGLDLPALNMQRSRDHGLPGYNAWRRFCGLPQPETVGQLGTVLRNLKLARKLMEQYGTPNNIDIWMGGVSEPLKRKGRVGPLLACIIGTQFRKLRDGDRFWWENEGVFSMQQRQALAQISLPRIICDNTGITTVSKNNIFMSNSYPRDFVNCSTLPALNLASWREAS
Nature of the series: MPO peroxidase assay in lithium heparin plasma (Hitachi 917): effects of common plasma substances on assay performance. To be noted: nearly neutral pH.
Experimental: To measure MPO peroxidase activity in blood samples, the following liquid stable, ready-to-use assay reagents were used:
The MPO peroxidase assay is formulated for use with non-hemolyzed lithium heparin plasma. No special handling or pretreatment is required. Plasma samples were collected such that testing could be performed as soon as possible after the specimen collection. Although the specimens may be refrigerated at 2-8° C. for 2-5 days, freezing plasma samples may lead to a decrease in MPO peroxidase activity.
In a cuvette, 140 μL of Reagent 1 and 25 μL of plasma sample were mixed and incubated at 37° C. for 1.5 minutes. Absorbance at 505 nm was read at about 2 minutes after the addition of 60 μL Reagent 2 as A1. The reaction was then incubated for approximately 3 more minutes, and the absorbance was read again as A2. The rate of the total peroxidation reaction was calculated as follows: Rate A=(A2−A1)/t, wherein t≈3 min
At about 5 minutes after the addition of Reagent 2, 46 μL of Reagent 3 was added to the reaction mix. Absorbance at 505 nm was read at about 2 minutes after the addition of Reagent 3 as A3. The reaction was then incubated for approximately 3 more minutes and the absorbance was read again as A4. The rate of the non-MPO peroxidation reaction was calculated as follows: Rate B=(A4−A3)/t, wherein t 3 min […]

For “3,5-Dichloro-2-hydroxybenzenesulfonate, disodium salt/4AA or 3,5-Dichloro-2-hydroxybenzenesulfonic acid/4AA [DHBS/4AA]”, in series [1], the “ΔOD/min (after inhibitor)” value is listed as 0.002 ΔOD/min and the “ΔOD/min (before inhibitor)” value was 0.089 ΔOD/min.

For 4-Methylcatechol/4AA [4-MC/4AA], in series [2], the Sensitivity entry is “Poor (“poor” if ΔOD/min was below 0.05)”. Moreover, the “Interference by Inhibitor” value in series [1] is on record as “high numbers of false positives”.

On to `CC(=O)N1c2ccc(O)cc2Oc2cc(O)ccc21` [Amplex, N-Acetyl-3,7-dihydroxyphenoxazine (Amplex ® UltraRed)], for which, in series [2], the ΔOD/min is recorded as 0.018 ΔOD/min and the Sensitivity result is on record as “Poor (“poor” if ΔOD/min was below 0.05)”.

Regarding `CN(C)c1ccc(N(C(=O)NCC(=O)[O-])c2ccc(N(C)C)cc2)cc1.[Na+]` [DA64, N-(Carboxymethylaminocarbonyl)-4,4′-bis(dimethylamino)-diphenylamine sodium salt], in series [2], the ΔOD/min was 0.0012 ΔOD/min and the Sensitivity result is on record as “Poor (“poor” if ΔOD/min was below 0.05)”.

As to `CN(C)c1ccc2c(c1)Sc1cc(N(C)C)ccc1N2C(=O)NCC(=O)[O-].[Na+]` [DA67, 10-(Carboxymethylaminocarbonyl)-3,7-bis(dimethylamino)-phenothiazine sodium salt], in series [2], the ΔOD/min is 0.023 ΔOD/min and the Sensitivity result was “Poor (“poor” if ΔOD/min was below 0.05)”.

Consider `Nc1ccc(-c2ccc(N)c(N)c2)cc1N` [DAB, 3,3′-Diaminobenzidine], for which, in series [2], the ΔOD/min was 0.0093 ΔOD/min and the Sensitivity entry was “Poor (“poor” if ΔOD/min was below 0.05)”.

In the case of `COc1ccccc1O` [Guaiacol, 1-Hydroxy-2-methoxybenzene; 2-Methoxyphenol], in series [2], the ΔOD/min was 0.37 ΔOD/min and the Sensitivity result is given as “High (“high” if ΔOD/min was above 0.2)”.

For `O=N[O-].[K+]` [KNO2, Potassium nitrite], in series [2], the ΔOD/min result was “No signal” and the Sensitivity result is “Poor (“poor” if ΔOD/min was below 0.05)”.

On to `Cc1cc(-c2ccc(NCC(O)CS(=O)(=O)[O-])c(C)c2)ccc1NCC(O)CS(=O)(=O)[O-].[Na+].[Na+]` (centres unmarked) [SAT-3, N,N′-Bis(2-hydroxy-3-sulfopropyl)tolidine, disodium salt,], for which, in series [2], the ΔOD/min is reported as 0 ΔOD/min and the Sensitivity result was “Poor (“poor” if ΔOD/min was below 0.05)”.

Regarding `CCCCCCCCCCCCCC[N+](C)(C)Cc1ccccc1.[Cl-]` [TDBA, Tetradecyldimethylbenzylammonium chloride], in series [2], the ΔOD/min is listed as 0 ΔOD/min and the Sensitivity entry is “Poor (“poor” if ΔOD/min was below 0.05)”.

As for `Cc1cc(-c2cc(C)c(N)c(C)c2)cc(C)c1N` [TMB, 3,3′,5,5′-Tetramethylbenzidine], in series [2], the ΔOD/min was 0.32 ΔOD/min and the Sensitivity entry is “High (“high” if ΔOD/min was above 0.2)”.

With `COc1cc(-c2ccc(N)c(OC)c2)ccc1N.Cl.Cl` [o-dianisidine, o-Dianisidine dihydrochloride], the “behaviour of the chromogenic substrate in blood samples” value in series [3] is “precipitated from blood samples”. For the same compound, the Sensitivity result in series [2] (dihydrochloride) was “precipitated out of solution”.

“N,N-Bis(4-sulfobutyl)-3,5-dimethylaniline, disodium salt/4AA [MADB/4AA]”: in series [2], the ΔOD/min was 0.04 ΔOD/min and the Sensitivity result is “Poor (“poor” if ΔOD/min was below 0.05)”.

For the compound “N,N-Bis(4-sulfobutyl)-3-methylaniline, disodium salt (TODB)/3-Methyl-2-benzothiazolinone hydrazone (MBTH) [TODB/MBTH]”, in series [2], the Sensitivity entry is “Fair (“fair” if ΔOD/min was between 0.05 and 0.2)”. Also, the “Interference by Inhibitor” value in series [1] is “high numbers of false positives”.

With “N,N-Bis(4-sulfobutyl)-3-methylaniline, disodium salt/4AA [TODB/4AA]”, the ΔOD/min in series [2] is 0.07 ΔOD/min. In series [1], the “ΔOD/min (after inhibitor)” value is given as 0.001 ΔOD/min and the “ΔOD/min (before inhibitor)” value is listed as 0.077 ΔOD/min.

In the case of “N,N-dimethylaniline (DMA)/3-Methyl-2-benzothiazolinone hydrazone (MBTH) [DMA/MBTH]”, in series [2], the Sensitivity entry is reported as “Poor (“poor” if ΔOD/min was below 0.05)”.

“N-(2-Hydroxy-3-sulfopropyl)-3,5-dimethoxyaniline, sodium salt/4AA [HDAOS/4AA]”: in series [2], the ΔOD/min was 0.03 ΔOD/min and the Sensitivity entry is “Poor (“poor” if ΔOD/min was below 0.05)”.

As to “N-Ethyl-N-(2-hydroxy-3-sulfopropyl)-3,5-dimethoxyaniline, sodium salt/4AA [DAOS/4AA]”, in series [2], the ΔOD/min is 0.025 ΔOD/min and the Sensitivity entry is reported as “Poor (“poor” if ΔOD/min was below 0.05)”.

Regarding “N-Ethyl-N-(2-hydroxy-3-sulfopropyl)-3,5-dimethylaniline, sodium salt, monohydrate/4AA [MAOS/4AA]”, in series [2], the ΔOD/min was 0.045 ΔOD/min and the Sensitivity result was “Poor (“poor” if ΔOD/min was below 0.05)”.

Regarding “N-Ethyl-N-(2-hydroxy-3-sulfopropyl)-3-methoxylaniline, sodium salt, dehydrate/4AA [ADOS/4AA]”, in series [2], the ΔOD/min is 0.04 ΔOD/min and the Sensitivity entry is “Poor (“poor” if ΔOD/min was below 0.05)”.

On to “N-Ethyl-N-(2-hydroxy-3-sulfopropyl)-3-methylaniline, sodium salt, dehydrate/4-Aminoantipyrine (4AA) [TOOS/4AA]”, for which the ΔOD/min in series [2] is recorded as 0.12 ΔOD/min. In series [1], the “ΔOD/min (after inhibitor)” value is 0.004 ΔOD/min and the “ΔOD/min (before inhibitor)” value is reported as 0.087 ΔOD/min.

On to “N-Ethyl-N-(3-sulfopropyl)-3-methoxyaniline, sodium salt, monohydrate/4AA [ADPS/4AA]”, for which, in series [2], the ΔOD/min is 0.004 ΔOD/min and the Sensitivity entry is reported as “Poor (“poor” if ΔOD/min was below 0.05)”.

Turning to “N-Ethyl-N-(3-sulfopropyl)-3-methylaniline, sodium salt/4AA [TOPS/4AA]”, the ΔOD/min in series [2] is given as 0.055 ΔOD/min.

On to “N-Ethyl-N-(3-sulfopropyl)-aniline, sodium salt (ALPS)/3-Methyl-2-benzothiazolinone hydrazone (MBTH) [ALPS/MBTH]”, for which, in series [2], the Sensitivity entry was “Fair (“fair” if ΔOD/min was between 0.05 and 0.2)”. Further, in series [1], the “Interference by Inhibitor” value is “high numbers of false positives”.

With “N-Ethyl-N-(3-sulfopropyl)-aniline, sodium salt/4AA [ALPS/4AA]”, in series [1], the “ΔOD/min (after inhibitor)” value is on record as −0.003 ΔOD/min and the “ΔOD/min (before inhibitor)” value was 0.086 ΔOD/min.
